Measurements from patent publication EP0588317A1 (priority 1992, dated 1994).
Read-outs that look alike come from different tables or passages of the source. Each block holds one compound with its values, some of them ahead of it.

Assays:
[1] = solubility in soybean oil; type: physicochemical
Text: The oil phase component used for preparing fat emulsions (or lipid emulsions) may be any of those conventionally used for preparing fat emulsions (or lipid emulsions), including vegetable oils such as soybean oil, cottonseed oil, synthetic triglycerides such as Panasate 800, Panasate 810 (trade name; manufactured by Nippon Yushi), squalene, eicosapentaenoic acid, azone, and the like. For preparing fat emulsions (or lipid emulsions), high solubility in these oil components is required for substance to be fat-emulsified (or lipid-emulsified). The compound of the present invention has a high solubility in these oil components, for example, 300 mg/ml or more in soybean oil at 40°C. The fat emulsions (or lipid emulsions) can be prepared by dissolving the compound of the present invention in soybean oil, Panasate, etc., adding lecithin to the solution, crude-emulsifying the mixture with a homomixer, etc., and then fine-emulsifying with a nanomizer under high pressure.

[2] = system: established cell line derived from mice; conditions: at the same molar concentration, in vitro, versus 5-fluorouracil; cited from earlier work
[3] = versus 5-fluorouracil; cited from earlier work
colon 26 cells = experiment: anti-tumor activity of fat emulsion given intravenously to mice inoculated with colon 26 cells; type: in vivo; conditions: fat emulsions, 14 days, dose per day 50 mg/kg

SMILES: CCCCC/C=C\C/C=C\CCCCCCCC(=O)OCn1c(=O)c(F)cn([C@H]2C[C@H](OC(C)=O)[C@@H](COC(C)=O)O2)c1=O [Example 3, 3',5'-O-diacetyl-3-linolyloxymethyl-2'-deoxy-5-fluorouridine]
solubility ([1]; soybean oil, 40 °C, oil or lipid; read-out: solubility of this compound in soybean oil): > 300 mg/mL

solubility of this compound in soybean oil [1]: > 300 mg/soybean oil 1 ml
SMILES: CCCCCCC(=O)OCn1c(=O)c(F)cn([C@@H]2O[C@H](COC(=O)CCC)[C@@H](OC(=O)CCC)[C@H]2OC(=O)CCC)c1=O [Example 20, 2',3',5'-O-tri-n-butyryl-3-n-heptanoyloxymethyl-5-fluorouridine]

solubility of this compound in soybean [1]: 150 mg/0.5 ml
SMILES: CCCCC/C=C\C/C=C\CCCCCCCC(=O)OCn1c(=O)c(F)cn([C@H]2C[C@H](OC(=O)Oc3ccc(OC)cc3)[C@@H](COC(=O)Oc3ccc(OC)cc3)O2)c1=O [Example 16, 3',5'-O-di(4-methoxyphenoxy-carbonyl)-3-linolyloxymethyl-2'-deoxy-5-fluorouridine]

solubility of this compound in soybean [1]: 150 mg/0.5 ml
SMILES: CCCCC/C=C\C/C=C\CCCCCCCC(=O)OCn1c(=O)c(F)cn([C@H]2C[C@H](OC(=O)Oc3ccccc3)[C@@H](COC(=O)Oc3ccccc3)O2)c1=O [Example 15, 3',5'-O-diphenoxycarbonyl-3-linolyloxymethyl-2'-deoxy-5-fluorouridine]

SMILES: O=c1[nH]c(=O)n([C@H]2C[C@H](O)[C@@H](CO)O2)cc1F [FdUrd, 2'-Deoxy-5-fluorouridine]
cancer inhibitory activity relative to 5-fluorouracil [2]: more than 100 times
in vivo advantage over 5-fluorouracil [3]: no advantage over 5-fluorouracil

solubility of this compound in soybean oil [1]: > 300 mg/soybean oil 1 ml
SMILES: CCCCC/C=C\C/C=C\CCCCCCCC(=O)OCn1c(=O)c(F)cn([C@@H]2O[C@H](COC(=O)CCC)[C@@H](OC(=O)CCC)[C@H]2OC(=O)CCC)c1=O [Example 19, 2',3',5'-O-tri-n-butyryl-3-linolyloxymethyl-5-fluorouridine]

SMILES: CCCCCCC(=O)OCn1c(=O)c(F)cn([C@H]2C[C@H](OC(=O)CCC)[C@@H](COC(=O)CCC)O2)c1=O [Example 4]
solubility ([1]; 40 °C, oil or lipid; soybean oil; read-out: solubility of this compound in soybean oil): > 300 mg/mL
growth inhibiting activity (colon 26 cells; male mice inoculated with colon 26 cells in the inguinal region): more than 90%
body weight (colon 26 cells; male mice inoculated with colon 26 cells): without decrease of body weight
